{
  "source": "patent US10111848B2",
  "about": "(National Institute of Health and Medical Research, priority 2012, dated 2018)",
  "tested_on": "Subjects exhibiting GLUT1 deficiency",
  "test": "Treatment of subjects exhibiting GLUT1 deficiency with triheptanoin (Example 1)",
  "format": "in vivo",
  "settings": "triheptanoin with each meal, about 30-35% of caloric intake, with or without other anti-epileptic drugs",
  "from_the_text": "The subjects' seizure frequency is reduced and their neurologic and movement disorder is improved due to the restoration of brain energy metabolism and net biosynthesis.",
  "data": [
    {"compound": "CCCCCCC(=O)OCC(COC(=O)CCCCCC)OC(=O)CCCCCC", "note": "[triheptanoin, glyceryl triheptanoate]", "values": [
      {"measurement": "neurologic and movement disorder", "result": "improved"},
      {"measurement": "seizure frequency", "result": "reduced"}
    ]}
  ]
}
